Measurements as given in patent publication EP4714939A1, “SULFONAMIDE COMPOUND, PREPARATION METHOD THEREFOR, AND PHARMACEUTICAL USE THEREOF” (Shenzhen Salubris Pharmaceuticals Co., Ltd., priority 2023, dated 2024).

Tested on: Lp(a)
Test: In-vitro Lp(a) assembly assay (cell-free, sandwich ELISA)
Format: biochemical
Settings: inhibition of Lp(a) formation; HepG2 and HEK293 (human Apo(a), 17 Kringle repeats) conditioned media, 37°C, 2 hours; 4-parameter curve
Experimental: The capability of the compounds in the examples inhibiting the formation of Lp(a) particles in vitro was evaluated through cell-free assembly assay. After incubation at 37°C with 5% CO2 for 96 h, conditioned media (supplemented with 10% FBS, 20 mM HEPES, and 1 × penicillin/streptomycin DMEM) was collected from confluent wild-type HepG2 cells (source of endogenously expressed ApoB) and an HEK293 stable cell line expressing human Apo(a) protein containing 17 Kringle repeats (selected on 1 ug/ml puromycin). In-vitro assembly assay was performed by combining equal parts of HepG2 and HEK293 conditioned media with compounds under test added in a dilution series (final concentration being 0.03-1000 nM). A reaction was incubated at 37°C for 2 hours, and terminated by adding 6-aminocaproic acid (EACA) to a final concentration of 150 mM. Sandwich ELISA was used to detect Lp(a) using an anti-Apo(a) capture antibody (ab242565) and an HRP-conjugated anti-ApoB detection antibody (ab27622). ELISA was performed using TMB staining, and terminated with 1N sulfuric acid, and signals were read at 450 nm on an Envision 2104 plate reader. By setting an assembly reaction without inhibitors to 0% inhibition and an assembly reaction with the minimum amount of HepG2 conditioned medium (50-fold dilution) to 100% inhibition, the % inhibition of Lp(a) formed under each test condition was determined. Table 1 IC90 values of sulfonamide compounds

| SMILES | IC90 |
| --- | --- |
| O=C(O)[C@@H](Cc1cccc(CN(Cc2ccc(Cl)c(C[C@H](C(=O)O)[C@H]3CCNC3)c2)S(=O)(=O)c2cccc(C[C@H](C(=O)O)[C@H]3CCNC3)c2)c1)[C@H]1CCNC1 [Compound 10] | 52.3 nM |
| O=C(O)[C@@H](Cc1cccc(CN(Cc2ccc(Cl)c(C[C@H](C(=O)O)[C@H]3CCNC3)c2)S(=O)(=O)c2ccc(F)c(C[C@H](C(=O)O)[C@H]3CCNC3)c2)c1)[C@H]1CCNC1 [Compound 39, (S)-3-(5-(N-(3-((S)-2-carboxyl-2-((R)-pyrrolid-3-yl)ethyl)-4-chlorobenzyl)-N-(3-((S)-2-carboxyl-2-((R)-pyrrolid-3-yl)ethyl)benzyl)aminosulfonyl)-2-fluorophenyl)-2-((R)-pyrrolid-3-yl)propanoic acid] | 24.9 nM |
| O=C(O)C(Cc1ccc(F)c(CN(Cc2cc(CC(C(=O)O)C3CCNC3)ccc2F)S(=O)(=O)c2ccc(F)c(CC(C(=O)O)C3CCNC3)c2)c1)C1CCNC1 [Compound 34, (2S,2'S)-3,3'-(((((3-((S)-2-carboxyl-2-((R)-pyrrolid-3-yl)ethyl)-4-fluorophenyl)sulfonyl)azadiyl)bis(methylenyl))bis(6-fluoro-3,1-phenylenyl))bis(2-((R)-pyrrolid-3-yl)propanoic acid)] | 17.7 nM |
| O=C(O)[C@@H](Cc1cccc(S(=O)(=O)N(CCc2ccccc2C[C@H](C(=O)O)[C@H]2CCNC2)Cc2cc(C[C@H](C(=O)O)[C@H]3CCNC3)ccc2F)c1)[C@H]1CCNC1 [Compound 26] | 86.7 nM |
| O=C(O)[C@@H](Cc1cccc(S(=O)(=O)N(CCc2ccccc2C[C@H](C(=O)O)[C@H]2CCNC2)Cc2cccc(C[C@H](C(=O)O)[C@H]3CCNC3)c2F)c1)[C@H]1CCNC1 [Compound 25, (S)-3-(3-(N-(3-((S)-2-carboxyl-2-((R)-pyrrolid-3-yl)etyhl)-2-fluorobenzyl) -N-(2-(S)2-carboxyl-2-((R)-pyrrolid-3-yl)ethyl)phenethyl)aminosulfonyl)phenyl)-2-(((R)-pyrrolid-3-yl)propanoic acid] | 81.7 nM |
| O=C(O)C(Cc1cccc(CN(Cc2ccccc2CC(C(=O)O)C2CCNC2)S(=O)(=O)c2cccc(CC(C(=O)O)C3CCNC3)c2)c1)C1CCNC1 [Compound 23, (S)-3-(3-(((3-(S)-2-carboxyl-2-((R)-pyrrolid-3-yl)ethyl)-N-(2-((S)2-carboxyl-2-(R)pyrrolid-3-yl)ethyl)benzyl)phenyl)sulfonamido)methyl)phenyl)-2-((R)-pyrrolid-3-yl)propanoic acid] | 76.2 nM |
| O=C(O)[C@@H](Cc1cccc(CN(Cc2ccc(F)c(C[C@H](C(=O)O)[C@H]3CCNC3)c2F)S(=O)(=O)c2cccc(C[C@H](C(=O)O)[C@H]3CCNC3)c2)c1)[C@H]1CCNC1 [Compound 30] | 29 nM |
| O=C(O)[C@@H](Cc1cccc(CCN(Cc2cccc(C[C@H](C(=O)O)[C@H]3CCNC3)c2)S(=O)(=O)c2cccc(C[C@H](C(=O)O)[C@H]3CCNC3)c2)c1)[C@H]1CCNC1 [Compound 20] | 30.7 nM |
| O=C(O)C(Cc1cccc(CCN(CCc2cccc(CC(C(=O)O)C3CCNC3)c2)S(=O)(=O)c2cccc(CC(C(=O)O)C3CCNC3)c2)c1)C1CCNC1 [Compound 21, (2S,2'S)-3,3'(3-((S)-2-carboxyl-2-((R)-pyrrolid-3-yl)ethyl)phenyl)sulfonyl)azadiyl)bis(ethane-2,1-diyl))bis(3,1-phenylenyl)bis(2-(R)-pyrrolid-3-yl)propanoic acid)] | 33.9 nM |
| O=C(O)[C@@H](Cc1cccc(S(=O)(=O)N(CCc2ccccc2C[C@H](C(=O)O)[C@H]2CCNC2)Cc2cc(C[C@H](C(=O)O)[C@H]3CCNC3)c(F)cc2F)c1)[C@H]1CCNC1 [Compound 27] | 79.6 nM |
| O=C(O)[C@@H](Cc1cccc(CN(Cc2ccc(F)c(C[C@H](C(=O)O)[C@H]3CCNC3)c2)S(=O)(=O)c2cccc(C[C@H](C(=O)O)[C@H]3CCNC3)c2)c1)[C@H]1CCNC1 [Compound 2] | 62.6 nM |
| O=C(O)[C@@H](Cc1cccc(S(=O)(=O)N(Cc2cc(C[C@H](C(=O)O)[C@H]3CCNC3)ccc2F)Cc2cc(C[C@H](C(=O)O)[C@H]3CCNC3)ccc2F)c1)[C@H]1CCNC1 [Compound 13] | 11.5 nM |
| O=C(O)C(Cc1cccc(CN(Cc2cccc(CC(C(=O)O)C3CCNC3)c2)S(=O)(=O)c2cc(F)cc(CC(C(=O)O)C3CCNC3)c2)c1)C1CCNC1 [Compound 7, (2S,2'S)-3,3'(3-((S)-2-carboxyl-2-(R)-pyrrolid-3-yl)ethyl)-5-fluorophenyl sulfonyl)azadiyl)dimethylenyl)bis(3,1-phenylenyl)bis(2-(R)-pyrrolid-3-yl)propanoic acid)] | 69.9 nM |
| O=C(O)[C@@H](Cc1cccc(S(=O)(=O)N(Cc2ccc(F)c(C[C@H](C(=O)O)[C@H]3CCNC3)c2)Cc2cc(C[C@H](C(=O)O)[C@H]3CCNC3)ccc2F)c1)[C@H]1CCNC1 [Compound 14] | 24.4 nM |
| O=C(O)[C@@H](Cc1cccc(CCN(CCc2ccccc2C[C@H](C(=O)O)[C@H]2CCNC2)S(=O)(=O)c2cccc(C[C@H](C(=O)O)[C@H]3CCNC3)c2)c1)[C@H]1CCNC1 [Compound 19] | 40.9 nM |
| O=C(O)C(Cc1cccc(CN(Cc2cccc(CC(C(=O)O)C3CCNC3)c2)S(=O)(=O)c2ccc(Cl)c(CC(C(=O)O)C3CCNC3)c2)c1)C1CCNC1 [Compound 35, (2S,2'S)-3,3'-(((((3-((S)-2-carboxyl-2-((R)-pyrrolid-3-yl)ethyl)-4-chlorophenyl)sulfonyl)azadiyl)bis(methylenyl))bis(3,1-phenylenyl))bis(2-((R)-pyrrolid-3-yl)propanoic acid)] | 41.3 nM |
| O=C(O)[C@@H](Cc1cccc(CN(Cc2cc(C[C@H](C(=O)O)[C@H]3CCNC3)c(F)cc2F)S(=O)(=O)c2cccc(C[C@H](C(=O)O)[C@H]3CCNC3)c2)c1)[C@H]1CCNC1 [Compound 15] | 16 nM |
| O=C(O)[C@@H](Cc1cccc(S(=O)(=O)N(CCc2ccccc2C[C@H](C(=O)O)[C@H]2CCNC2)Cc2ccc(F)c(C[C@H](C(=O)O)[C@H]3CCNC3)c2)c1)[C@H]1CCNC1 [Compound 24] | 25.8 nM |
| O=C(O)[C@@H](Cc1cccc(CCN(Cc2ccc(Cl)c(C[C@H](C(=O)O)[C@H]3CCNC3)c2)S(=O)(=O)c2cccc(C[C@H](C(=O)O)[C@H]3CCNC3)c2)c1)[C@H]1CCNC1 [Compound 38] | 81.8 nM |
| O=C(O)C(Cc1cccc(S(=O)(=O)N(Cc2c(F)ccc(CC(C(=O)O)C3CCNC3)c2F)Cc2c(F)ccc(CC(C(=O)O)C3CCNC3)c2F)c1)C1CCNC1 [Compound 31, (2S,2'S)-3,3'-((3-((S)-2-carboxyl-2-(R)-pyrrolid-3-yl)ethyl)phenyl)sulfonyl)azadiyl)bis(methylenyl))bis(2,6-difluoro-3,1-phenylenyl)bis(2-(R)-pyrrolid-3-yl)propanoic acid)] | 21.1 nM |
| O=C(O)[C@@H](Cc1cccc(CN(Cc2c(F)ccc(C[C@H](C(=O)O)[C@H]3CCNC3)c2F)S(=O)(=O)c2cccc(C[C@H](C(=O)O)[C@H]3CCNC3)c2)c1)[C@H]1CCNC1 [Compound 32] | 31.4 nM |
| O=C(O)C(Cc1cccc(CN(Cc2cccc(CC(C(=O)O)C3CCNC3)c2)S(=O)(=O)c2cccc(CC(C(=O)O)C3CCNC3)c2F)c1)C1CCNC1 [Compound 8, (2S,2'S)-3,3'(3-(S)-2-carboxyl-2-(R)-pyrrolid-3-yl)ethyl)-2-fluorophenyl sulfonyl)azadiyl)dimethylenyl)bis(3,1-phenylenyl)bis(2-(R)-pyrrolid-3-yl)propanoic acid)] | 26.1 nM |
